In this experiment the test system is DTH response to 2,4-dinitrofluorobenzene (DNFB). Briefly: Delayed-type hypersensitivity (DTH) response to DNFB, ear swelling. In kind it is in vivo, Balb/C mice. An excerpt:
In the present Example, a murine model of Type IV hypersensitivity or delayed-type hypersensitivity (DTH) response to cutaneous contact with the chemical hapten 2,4-dinitrofluorobenzene (DNFB) (Aldrich Chemical Company Inc, USA) was used as a model to measure the anti-inflammatory effects of compounds of the present invention. Specific pathogen-free 8-12 week old female Balb/C mice, weighing 19-21 g, were sensitised in a similar manner to that described by Klimuk et al., (Klimuk et al., 1999) by applying a solution of DNFB (0.5% in acetone:olive oil (4:1, v/v); 30 microliters,) onto a 2 cm^2 shaved area of the abdomen. After 7 days, the animals were anesthetised with diethyl ether and 8 microliters of DNFB (0.35% in acetone:olive oil (4:1, v/v) was applied to the dorsal and ventral surfaces of the right pinna. Prior to regaining consciousness, the mice were implanted intraperitoneally with Alzet 2001 mini-osmotic pumps (Alza Corp., Palo Alto Calif., USA) containing phosphoric acid mono-[6-(3-hexyloxy-propyl)-3,4,5-trihydroxy-tetrahydro-pyran-2-ylmethyl] ester, sodium salt in normal saline. The dose delivered was 50 mg/kg/day. Control animals for this group received saline delivered in identical mini-osmotic pumps. A second experimental group of mice received phosphoric acid mono-[3-(3,4,5-trihydroxy-6-phosphonooxymethyl-tetrahydro-pyran-2-yl)-propyl] ester disodium salt via one-week delivery Alzet 2001 mini-osmotic pumps implanted intraperitoneally. This compound was delivered at a dose of 40 mg/kg/day. Control animals for this group received saline delivered in identical mini-osmotic pumps. In a third experiment a separate group of mice received (3,4,5-trihydroxy-6-phosphonooxymethyl-tetrahydro-pyran-2-yl)-acetic acid disodium salt via one-week delivery Alzet 2001 mini-osmotic pumps that were placed intraperitoneally. This compound was delivered at 45 mg/kg/day. The control group for this experiment received identical mini-osmotic pumps containing normal saline. In a fourth experiment a group of mice received 3-phenyl-2-[2-(3,4,5-trihydroxy-6-phosphonooxymethyl-tetrahydro-pyran-2-yl)-acetylamino]-propionic acid monosodium salt via one-week delivery Alzet 2001 mini-osmotic pumps that were placed subcutaneously. This compound was delivered at 62 mg/kg/day. The control group for this experiment received identical mini-osmotic pumps containing normal saline. In a fifth experiment a group of mice received hexanoic acid 3-(3,4,5-trihydroxy-6-phosphonooxymethyl-tetrahydro-pyran-2-yl)-propyl ester sodium salt via one-week delivery Alzet 2001 mini-osmotic pumps that were placed subcutaneously. This compound was delivered at 40 mg/kg/day. The control group for this experiment received identical mini-osmotic pumps containing normal saline.
Twenty-four hours after challenge the mice were lightly anesthetised with diethyl ether and the thickness of the left and right pinnae measured (in millimeters) using a dial gauge micrometer (Interapid, Switzerland). Care was taken to measure only the outer two thirds of the ear. The increase in ear thickness initiated by the DTH response was determined by subtracting the measurement of the left ear (untreated) from the right ear (challenged).
In Table 4, values in the columns labeled Left and Right are measurements of ear thickness in millimeters of the control and challenged ears respectively.

Structures are written as SMILES. Where “and” joins values, the source holds several entries; their conditions need not be identical. Equal entries are not always repeated.

In the case of `CCCCCC(=O)OCCCC1OC(COP(=O)(O)O)C(O)C(O)C1O.[Na]` (centres unmarked) [hexanoic acid 3-(3,4,5-trihydroxy-6-phosphonooxymethyl-tetrahydro-pyran-2-yl)-propyl ester monosodium salt], the “Mean percentage decrease in ear swelling in treated animals” value (40 mg/kg/day subcutaneously, versus saline controls) is reported as “Mean percentage decrease in ear swelling in treated animals: 47.6%”. Also, where the note is “group mean, 40 mg/kg/day subcutaneously, saline control mean 0.126”, the “Mean Difference, Treated” value is given as 0.066 millimeters. Besides, where the note is “individual mice, 40 mg/kg/day, mini-osmotic pump subcutaneously, 24 hours after challenge, monosodium salt”, the “Difference (right minus left ear), Treated” value was 0.07 millimeters (2×) and 0.08 millimeters and 0.05 millimeters and 0.06 millimeters. For the same molecule, the “Right ear thickness, Treated” value (individual mice, challenged ear, 40 mg/kg/day, mini-osmotic pump subcutaneously, 24 hours after challenge, monosodium salt) was 0.29 millimeters (3×) and 0.28 millimeters and 0.27 millimeters. Besides, for the setting “individual mice, control (unchallenged) ear, 40 mg/kg/day, mini-osmotic pump subcutaneously, 24 hours after challenge, monosodium salt”, the “Left ear thickness, Treated” value was 0.22 millimeters (2×) and 0.21 millimeters (2×) and 0.23 millimeters.
